According to PMC9589054, “One-step synthesized antimicrobial peptide-functionalized gold nanoclusters for selective imaging and killing of pathogenic bacteria” (Frontiers in Microbiology, 2022):
Ends that are not written are not given here.

How the values were obtained:
Experiment in all cases: Plate bactericidal experiment (colony counting)
Type in all cases: cell-based
Conditions in all cases: 22-712 μg/ml tested
[1] = tested on: Escherichia coli (E. coli) ATCC 25922
Experimental: (§1) The Escherichia coli (E. coli) ATCC 25922, Staphylococcus aureus (S. aureus) ATCC 25923, and Acinetobacter baumannii (A. baumannii) ATCC 19606 used in our experiments were preserved in our laboratory. Bacteria were cultured in LB liquid medium at 37°C for 8–12 h. Then, the cultures were centrifuged at 4,000 rpm for 5 min and washed three times with PBS. Eventually, the bacterial solutions were diluted to different concentrations for testing (10–1.00 × 10^9 cfu/ml). First, 100 μl of CWR11-AuNC solution was added to an E. coli or S. aureus suspension (1 × 10^5 cfu/ml). After 1 h of incubation, 10 μl of bacterial suspension was inoculated on an LB solid agar plate and placed at 37°C for 24 h before the number of colonies was counted. In addition, different concentrations of CWR11-AuNCs were added to the bacterial suspensions (McFarland turbidity of 0.5) and placed at 37°C for 18–24 h. Bacterial viability was determined by measuring the absorbance at 600 nm.

[2] = tested on: Staphylococcus aureus (S. aureus) ATCC 25923
Experimental: as §1

[3] = tested on: Acinetobacter baumannii (A. baumannii) ATCC 19606

CWFWKWWRRRRR [CWR11]
significantly reduced the activity: effect on activity of E. coli [1] | effect on activity of S. aureus [2] | effect on activity of A. baumannii [3]
